Results published in patent publication US20240285630A1, “Methods and compositions for improving exercise performance” (MEZZION PHARMA CO., LTD., priority 2021, published 2024).

Assays:
[1] = test system: adolescents with Fontan physiology; test: FUEL Trial echocardiographic myocardial performance index (MPI), blood pool Doppler; format: in vivo, human
Description: Generally speaking, MPI (also referred to as the Doppler-derived index or Tei Index) is a measure of ventricular systolic and diastolic function as determined by a focused echocardiogram. It combines systolic and diastolic time intervals to assess heart function. More specifically, MPI can be used to assess ventricular performance represented by a numeric value using cardiac time intervals. This numeric value equals the sum of isovolumetric contraction time (ICT) and isovolumetric relaxation time (IRT) divided by ejection time (ET) and can be determined for either the left or right ventricle. Pellett, A. A., et al.: The Tei Index: Methodology and Disease. State Values. Echocardiography: A Jrnl. of CV Ultrasound & Allied Tech. 21(7):669-672 (2004); and Ulugay, A., Tatli E.: Myocardial performance index. Anadolu Kardiyol Derg. 8(2):143-8 (April 2008), both of which are incorporated herein by reference in their entireties. In the FUEL Trial, the MPI measured the performance of the single functioning ventricle. Thus, the MPI results from the FUEL Trial were determined by velocities obtained from blood pool Doppler assessment of the inflow and outflow tract of the functioning single ventricle. In other words, the FUEL Trial MPI was determined by measuring the cardiac time intervals using pulsed-wave Doppler velocity spectra of the ventricular inflow and outflow of the single functioning ventricle.
Echocardiograms were performed by sonographers with specific training for this protocol. The primary outcome of interest was MPI using Doppler-based measures of inflow and outflow duration. The duration of inflow into the dominant ventricle and outflow across the dominant semilunar valve were measured and used to calculate MPI using the standard formula. Tei C, Ling L H, Hodge D O, et al.: New index of combined systolic and diastolic myocardial performance: a simple and reproducible measure of cardiac function-a study in normals and dilated cardiomyopathy. J Cardiol, 26(6):357-66 (1995); and Pellet A A et al.: The Tei Index: Methodology and Disease State Values. Echocardiography: A Jrnl Of CV Ultrasound & Allied Tech, 21(7):669-672 (2004). Additional tissue Doppler images were obtained and used to calculate the tissue Doppler based MPI as previously described. Harada K, Tamura M, Toyono M et al.: Comparison of the right ventricular Tei index by tissue Doppler imaging to that obtained by pulsed Doppler in children without heart disease. Am J Cardiol, 90(5):566-9 (2002).
Whenever possible, three measurements were made and the mean duration was used for the calculation.
Each subject underwent an echocardiogram at the start and finish of the 26 weeks. […] Table 3. […] The change in the MPI was determined by velocities obtained from blood pool Doppler assessment of the inflow and outflow tract of the single functioning dominant ventricle. All measurements were made by the echocardiography core lab at the Children's Hospital of Wisconsin.

[2] = test system: adolescents with Fontan physiology; details: cited from earlier work

CCCOc1ccc(S(=O)(=O)NCCC2CCCN2C)cc1-c1nc2c(CCC)nn(C)c2c(=O)[nH]1 (centres unmarked) [Udenafil, udenafil]
MPI, median of the difference Week 26 - baseline ([1]; ITT population): −0.01 | MPI difference Week 26 - baseline, LS Mean Dif A − B (SE), udenafil minus placebo ([1]; ITT population, ANCOVA): −0.03 (0.014) | MPI at Week 26, LS Mean Dif A − B (SE), udenafil minus placebo ([1]; ITT population, ANOVA): −0.04 (0.018) | MPI at Week 26, mean ([1]; ITT population, N=146): 146: 0.42 | MPI, difference Week 26 - baseline, mean ([1]; all participants with paired data n=122, decrease shows improvement, p=0.028 vs placebo): −0.02 | MPI, difference in change (treatment - placebo) ([1]; baseline peak VO2 <80% predicted, N=189): −0.04 | MPI, difference in change (treatment - placebo) ([1]; baseline peak VO2 ≥80% predicted, N=60): 0.01 | MPI, 26 week - baseline ([1]; excluding those with baseline peak VO2 ≥80% predicted, n=94): −0.03 | Average serum concentration ([2]; 87.5 mg twice daily compared with other tested regimens): highest average serum concentration | Dose limiting adverse events ([2]; 87.5 mg twice daily): not associated with dose limiting adverse events | Tolerability ([2]; all tested dosing regimens): demonstrated tolerability at all tested dosing regimens
